The test system of one series is Artemia. Description: Toxicity against brine shrimp. The class given is organism-based. The settings on record: in vivo.
In a further series the test system is Staphylococcus aureus. Description: Antimicrobial activity against Staphylococcus aureus ATCC 25293 by serial dilution method. The class given is functional.
The test system of series [1] is Agrobacterium tumefaciens. The experiment in a line: Antitumor activity assessed as inhibition of Agrobacterium tumefaciens B6-induced tumor formation after 12 days by potato disk assay. The class given is functional.

SMILES strings stand for the structures. ≈ marks a conversion by molar mass, not a printed value. Where only a bound is given, the exact number is not on record here.

As a reminder, the LC50 is the concentration lethal to half of the exposed cells or organisms. The term MIC denotes the least concentration at which growth counts as inhibited. A lower MIC goes with inhibition by little substance. Take `CCNC1=CC(=O)C=C(C[C@]2(C)[C@@H](C)CC[C@]3(C)C(C)=CCC[C@@H]23)C1=O`: in the series with Artemia, the LC50 is 0.81 ppm. Also, the MIC with Staphylococcus aureus was more than 100 µg/mL. Further, the “inhibition (INH)” value in series [1] turned out to be 54%.
Regarding `CC1=CCC[C@H]2[C@](C)(CC3=CC(=O)C=CC3=O)[C@@H](C)CC[C@]12C` [AVARONE], the LC50 in the series with Artemia was found to be 0.14 ppm. The compound also displayed an MIC in the series on Staphylococcus aureus of 1.56 µg/mL (≈ 4.99 µM). Also, in series [1], the “inhibition (INH)” value was found to be 63%.
Compound `CNC1=CC(=O)C(C[C@]2(C)[C@@H](C)CC[C@]3(C)C(C)=CCC[C@@H]23)=CC1=O` had an LC50 in the series on Artemia of 0.34 ppm. Also, in the series on Staphylococcus aureus, the MIC is more than 100 µg/mL. For the same compound, the “inhibition (INH)” value in series [1] was 57%.
Compound `CC1=CCC[C@H]2[C@](C)(CC3=CC(=O)C(N)=CC3=O)[C@@H](C)CC[C@]12C` came in with an LC50 in the series with Artemia of 0.23 ppm. In the series on Staphylococcus aureus, this compound had a minimum inhibitory concentration (MIC) of 50 µg/mL (≈ 153 µM). The “inhibition (INH)” value in series [1] is on record as 55%.
Compound `CC1(C)S[C@@H]2[C@H](NC(=O)Cc3ccccc3)C(=O)N2[C@H]1C(=O)[O-].[Na+]` [PENICILLIN G SODIUM] came in with an MIC against Staphylococcus aureus of 0.04 µg/mL.
`CC1=CCC[C@H]2[C@](C)(CC3=CC(=O)C(N[C@@H](C)C(=O)O)=CC3=O)[C@@H](C)CC[C@]12C` yielded an LC50 in the series with Artemia of 2 ppm. In the series with Staphylococcus aureus, this compound had an MIC of 6.25 µg/mL (≈ 15.6 µM). In series [1], the “inhibition (INH)” value is 38%.
Consider `CCNC1=CC(=O)C(C[C@]2(C)[C@@H](C)CC[C@]3(C)C(C)=CCC[C@@H]23)=CC1=O`, for which, in the series on Artemia, the LC50 came to 0.27 ppm. Further, in the series with Staphylococcus aureus, the MIC was more than 100 µg/mL. Further, the “inhibition (INH)” value in series [1] is on record as 38%.
As for `CC1=CCC[C@H]2[C@](C)(Cc3cc(=O)c4[nH]c5ncnc6ncn(c=4c3=O)c65)[C@@H](C)CC[C@]12C`, the LC50 in the series on Artemia was found to be 70.2 ppm. This compound came in with an MIC in the series with Staphylococcus aureus of 12.5 µg/mL (≈ 28.2 µM). Further, the “inhibition (INH)” value in series [1] is 27%.
`CC1=CCC[C@H]2[C@](C)(CC3=CC(=O)C=C(N)C3=O)[C@@H](C)CC[C@]12C`: in the series with Artemia, the LC50 was determined as 0.24 ppm. Besides, in the series on Staphylococcus aureus, the MIC was 50 µg/mL (≈ 153 µM). In series [1], the “inhibition (INH)” value came out at 53%.
For `CC1=CCC[C@H]2[C@](C)(CC3=CC(=O)C(N[C@@H]4[C@@H](O)[C@H](O)[C@@H](CO)O[C@H]4O)=CC3=O)[C@@H](C)CC[C@]12C`, the LC50 with Artemia was determined as 11.5 ppm. Also, the MIC with Staphylococcus aureus was 6.25 µg/mL (≈ 12.8 µM). Also, the “inhibition (INH)” value in series [1] worked out at 38%.

(Values after ChEMBL document CHEMBL1158906, “Biological Activities of Avarol Derivatives, 1. Amino Derivatives” (J Nat Prod, 1990).)
